Results as given in patent US7161029B2, “DiL-lysine monosulfate trihydrate crystal and method of making” (Ajinomoto Co., Inc., priority 2003, dated 2007).

Key:
[1] = temperature range at which the trihydrate precipitates (35° C. and below)
Piglets = details: compared with L-lysine hydrochloride; cited from earlier work

Row | Compound | degree of solubility in water versus the solubility curve of anhydrous diL-lysine sulfate (FIG. 4) [1] | feed effects (Piglets)
1 | NCCCC[C@H](N)C(=O)O.NCCCC[C@H](N)C(=O)O.O.O.O.O=S(=O)(O)O [diL-lysine monosulfate trihydrate] | lower than the degree of solubility that would be anticipated from the solubility curve of anhydrous diL-lysine sulfate | 
2 | NCCCC[C@H](N)C(=O)O.NCCCC[C@H](N)C(=O)O.O=S(=O)(O)O [diL-lysine sulfate] |  | equivalent to those of L-lysine hydrochloride
